Measured values reported in patent US12497406B2, “Microbiocidal derivatives” (SYNGENTA CROP PROTECTION AG, priority 2019, dated 2025).

Key:
[1] = system: Mycosphaerella arachidis (Cercospora arachidicola); experiment: Mycosphaerella arachidis (Cercospora arachidicola) / liquid culture (early leaf spot); assay type: cell-based; conditions: liquid culture (PDB), growth inhibition photometrically 4-5 days after application, compared to untreated control
Procedure: Example B7. Mycosphaerella arachidis (Cercospora arachidicola)/Liquid Culture (Early Leaf Spot) Conidia of the fungus from cryogenic storage are directly mixed into nutrient broth (PDB potato dextrose broth). After placing a (DMSO) solution of test compound into a microtiter plate (96-well format), the nutrient broth containing the fungal spores is added. The test plates are incubated at 24° C. and the inhibition of growth is determined photometrically 4-5 days after application. […] […]-22, and P-25.

Alternaria solani = Alternaria solani / tomato / leaf disc (early blight); assay type: in vivo; conditions: foliar, tomato leaf disks cv. Baby, inoculated 2 days after application, compared to untreated control
Procedure: Example B1. Alternaria solani/Tomato/Leaf Disc (Early Blight) Tomato leaf disks cv. Baby are placed on agar in multiwell plates (24-well format) and sprayed with the formulated test compound diluted in water. The leaf disks are inoculated with a spore suspension of the fungus 2 days after application. The inoculated leaf disks are incubated at 23° C./21° C. […] […]-24, and P-25.

[2] = system: Monographella nivalis (Microdochium nivale); experiment: Monographella nivalis (Microdochium nivale) / liquid culture (foot rot cereals); assay type: cell-based; conditions: liquid culture (PDB), growth inhibition photometrically 4-5 days after application, compared to untreated control
Procedure: (§1) Example B6. Monographella nivalis (Microdochium nivale)/Liquid Culture (Foot Rot Cereals) Conidia of the fungus from cryogenic storage are directly mixed into nutrient broth (PDB potato dextrose broth). After placing a (DMSO) solution of test compound into a microtiter plate (96-well format), the nutrient broth containing the fungal spores is added. The test plates are incubated at 24° C. and the inhibition of growth is determined photometrically 4-5 days after application. […] […]-25, and P-26.

[3] = system: Glomerella lagenarium (Colletotrichum lagenarium); experiment: Glomerella lagenarium (Colletotrichum lagenarium) / liquid culture (anthracnose); assay type: cell-based; conditions: Colletotrichum orbiculare, liquid culture (PDB), growth inhibition photometrically 3-4 days after application, compared to untreated control
Procedure: as §1, with “B3. Glomerella lagenarium (Colletotrichum lagenarium)/Liquid” for “B6. Monographella nivalis (Microdochium nivale)/Liquid”, “(Anthracnose)” for “(Foot Rot Cereals)”, “measured” for “determined”, “3-4” for “4-5”

[4] = system: Puccinia recondita f. sp. tritici; experiment: Puccinia recondita f. sp. tritici / wheat / leaf disc preventative (brown rust); assay type: in vivo; conditions: foliar, wheat leaf segments cv. Kanzler, inoculated 1 day after application, compared to untreated control
Procedure: Example B8. Puccinia recondita f. Sp. tritici/Wheat/Leaf Disc Preventative (Brown Rust) Wheat leaf segments cv. Kanzler are placed on agar in multiwell plates (24-well format) and sprayed with the formulated test compound diluted in water. The leaf disks are inoculated with a spore suspension of the fungus 1 day after application. The inoculated leaf segments are incubated at 19° C. and 75% rh under a light regime of 12 h light/12 h darkness in a climate cabinet and the activity of a compound is assessed as percent disease control compared to untreated when an appropriate level of disease damage appears in untreated check leaf segments (7-9 days after application). […] […]-25, and P-26.

[5] = system: Mycosphaerella graminicola (Septoria tritici); experiment: Mycosphaerella graminicola (Septoria tritici) / liquid culture (Septoria blotch); assay type: cell-based; conditions: Zymoseptoria tritici, liquid culture (PDB), growth inhibition photometrically 4-5 days after application, compared to untreated control
Procedure: (§2) Example B11. Mycosphaerella graminicola (Septoria tritici)/Liquid Culture (Septoria Blotch) Conidia of the fungus from cryogenic storage are directly mixed into nutrient broth (PDB potato dextrose broth). After placing a (DMSO) solution of test compound into a microtiter plate (96-well format), the nutrient broth containing the fungal spores is added. The test plates are incubated at 24° C. and the inhibition of growth is determined photometrically 4-5 days after application.

Pyrenophora teres = Pyrenophora teres / barley / leaf disc preventative (net blotch); assay type: in vivo; conditions: foliar, barley leaf segments cv. Hasso, inoculated 2 days after application, compared to untreated control
Procedure: Example B10. Pyrenophora teres/Barley/Leaf Disc Preventative (Net Blotch) Barley leaf segments cv. Hasso are placed on agar in a multiwell plate (24-well format) and sprayed with the formulated test compound diluted in water. The leaf segments are inoculated with a spore suspension of the fungus 2 days after application. The inoculated leaf segments are incubated at 20° C. and 65% rh under a light regime of 12 h light/12 h darkness in a climate cabinet and the activity of a compound is assessed as disease control compared to untreated when an appropriate level of disease damage appears in untreated check leaf segments (5-7 days after application). […] […]-25, and P-26.

[6] = system: Magnaporthe grisea (Pyricularia oryzae); experiment: whole plant or invertebrate; assay type: in vivo; conditions: foliar, read-out: control of Magnaporthe grisea
[7] = system: Botryotinia fuckeliana (Botrytis cinerea); experiment: Botryotinia fuckeliana (Botrytis cinerea) / liquid culture (gray mould); assay type: cell-based; conditions: 20 ppm; liquid culture (Vogels broth), growth inhibition photometrically 3-4 days after application; compared to untreated control
Procedure: as §2, with “B2. Botryotinia fuckeliana (Botrytis cinerea)/Liquid” for “B11. Mycosphaerella graminicola (Septoria tritici)/Liquid”, “(Gray Mould)” for “(Septoria Blotch)”, “(Vogels” for “(PDB potato dextrose”, “3-4” for “4-5”, “application. […] P-22.” for “application.”

Compound | inhibition of growth at 20 ppm [1] [%] | pest or weed control at 200 ppm (Alternaria solani) [%] | inhibition of growth at 20 ppm [2] [%] | inhibition of growth at 20 ppm [3] [%] | pest or weed control at 200 ppm [4] [%] | inhibition of growth at 20 ppm [5] [%] | pest or weed control at 200 ppm (Pyrenophora teres) [%] | pest or weed control at 200 ppm [6] [%] | control of Botryotinia fuckeliana [7]
CC1(C)CCC1NC(=O)c1nc(Nc2cccc(F)c2)cc2c1OCO2 (centres unmarked) [Compound P-8, N-(2,2-dimethylcyclobutyl)-6-(3-fluoroanilino)-[1,3]dioxolo[4,5-c]pyridine-4-carboxamide] | ≥ 80 | ≥ 80 | ≥ 80 | ≥ 80 | ≥ 80 | ≥ 80 | ≥ 80 |  | 
CC(C)(C)NC(=O)c1nc(Nc2cc(F)cc(F)c2)cc2c1OCO2 [Compound P-21, N-tert-butyl-6-(3,5-difluoroanilino)-[1,3]dioxolo[4,5-c]pyridine-4-carboxamide] | ≥ 80 | ≥ 80 | ≥ 80 | ≥ 80 | ≥ 80 | ≥ 80 | ≥ 80 | ≥ 80 | 
CC1(NC(=O)c2nc(Nc3cc(F)cc(F)c3)cc3c2OCO3)CCCC1 [Compound P-25, 6-(3,5-difluoroanilino)-N-(1-methylcyclopentyl)-[1,3]dioxolo[4,5-c]pyridine-4-carboxamide] | ≥ 80 | ≥ 80 | ≥ 80 | ≥ 80 | ≥ 80 | ≥ 80 | ≥ 80 | ≥ 80 | 
CC1(NC(=O)c2nc(Nc3cc(F)cc(F)c3)cc3c2OCO3)CCC1 [Compound P-22, 6-(3,5-difluoroanilino)-N-(1-methylcyclobutyl)-[1,3]dioxolo[4,5-c]pyridine-4-carboxamide] | ≥ 80 | ≥ 80 | ≥ 80 | ≥ 80 | ≥ 80 | ≥ 80 | ≥ 80 | ≥ 80 | at least 80%
